In PubChem BioAssay AID2060331 (Molecular Pharmacology Branch, DTP, NCI, 2025):
Several values for one entry are separate records, joined by “and”; a condition that tells them apart may be missing. Equal entries are not always repeated.

System: Hs578T multi-cell spheroids, viability
Assay: Anticancer human tumor Hs578T cell line growth inhibition [IpAb];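 note: drug exposure lasted 7 days before readout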
Conditions: for viability, T/C: stronger effect = lower value
Outline: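 Combinations with ipatasertib or abemaciclib were tested on tumour spheroids holding HUVEC (25%) and MSC (15%) alongside 60% malignant cells. Top concentration was at or near clinical Cmax (10 microM if undefined), descending in half-log steps.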

[1] = curve of first compound, second compound 0.01 µM
[2] = curve of first compound, second compound 0.0316 µM
[3] = curve of first compound, second compound 0.1 µM
[4] = curve of first compound, second compound 0.316 µM
[5] = curve of first compound, second compound 1 µM
[6] = second compound 0.1 µM, first compound 0.0316 µM
[7] = second compound 0.1 µM, first compound 0.1 µM
[8] = second compound 0.1 µM, first compound 0.316 µM
[9] = second compound 0.1 µM, first compound 1 µM
[10] = second compound 0.1 µM, first compound 3.16 µM
[11] = second compound 0.1 µM, first compound 10 µM
[12] = second compound 0.316 µM, first compound 0.0316 µM
[13] = second compound 0.316 µM, first compound 0.1 µM
[14] = second compound 0.316 µM, first compound 0.316 µM
[15] = second compound 0.316 µM, first compound 1 µM
[16] = second compound 0.316 µM, first compound 3.16 µM
[17] = second compound 0.316 µM, first compound 10 µM
[18] = second compound 1 µM, first compound 0.0316 µM
[19] = second compound 1 µM, first compound 0.1 µM
[20] = second compound 1 µM, first compound 0.316 µM
[21] = second compound 1 µM, first compound 1 µM
[22] = second compound 1 µM, first compound 3.16 µM
[23] = second compound 1 µM, first compound 10 µM
[24] = curve of first compound, second compound 3.16 µM
[25] = curve of first compound, second compound 10 µM
[26] = second compound 3.16 µM, first compound 0.0316 µM
[27] = second compound 3.16 µM, first compound 0.1 µM
[28] = second compound 10 µM, first compound 0.0316 µM
[29] = second compound 10 µM, first compound 0.1 µM

`CC1(C)CCC(CN2CCN(c3ccc(C(=O)NS(=O)(=O)c4ccc(NCC5CCOCC5)c([N+](=O)[O-])c4)c(Oc4cnc5[nH]ccc5c4)c3)CC2)=C(c2ccc(Cl)cc2)C1` + CCN1CCN(Cc2ccc(Nc3ncc(F)c(-c4cc(F)c5nc(C)n(C(C)C)c5c4)n3)nc2)CC1 was tested, and the IC50 [1] was 5.96 µM, the IC50 [2] was 5.58 µM and the IC50 [3] was 5.5 µM. It also gave an IC50 [4] of 5.71 µM, an IC50 [5] of 6.84 µM and a viability, T/C (second compound 0.01 µM, first compound 0.0316 µM) of 93.3%. The viability, T/C (second compound 0.01 µM, first compound 0.1 µM) was 107%, the viability, T/C (second compound 0.01 µM, first compound 0.316 µM) was 103% and the viability, T/C (second compound 0.01 µM, first compound 1 µM) was 99.8%. For the same molecule, the viability, T/C (second compound 0.01 µM, first compound 3.16 µM) was 90.4%, the viability, T/C (second compound 0.01 µM, first compound 10 µM) was 16.8% and the viability, T/C (second compound 0.0316 µM, first compound 0.0316 µM) was 96.4%. For the same molecule, the viability, T/C (second compound 0.0316 µM, first compound 0.1 µM) was 97%, the viability, T/C (second compound 0.0316 µM, first compound 0.316 µM) was 98.1% and the viability, T/C (second compound 0.0316 µM, first compound 1 µM) was 91.1%. For the same molecule, the viability, T/C (second compound 0.0316 µM, first compound 3.16 µM) was 81%, the viability, T/C (second compound 0.0316 µM, first compound 10 µM) was 18.6% and the viability, T/C [6] was 87.2%. For the same molecule, the viability, T/C [7] was 95.3%, the viability, T/C [8] was 84.6% and the viability, T/C [9] was 90.9%. The viability, T/C [10] was 76.7%, the viability, T/C [11] was 20.8% and the viability, T/C [12] was 86.3%. It also gave a viability, T/C [13] of 89.1%, a viability, T/C [14] of 80.6% and a viability, T/C [15] of 87.4%. The viability, T/C [16] was 80.2%, the viability, T/C [17] was 21.3% and the viability, T/C [18] was 96.5%. It also gave a viability, T/C [19] of 98.2%, a viability, T/C [20] of 91.8% and a viability, T/C [21] of 96.7%. The viability, T/C [22] was 101% and the viability, T/C [23] was 26.9%.

Molecule `CCCS(=O)(=O)Nc1ccc(F)c(C(=O)c2c[nH]c3ncc(-c4ccc(Cl)cc4)cc23)c1F` + CC(C)NCC(C(=O)N1CCN(c2ncnc3c2C(C)CC3O)CC1)c1ccc(Cl)cc1 has an IC50 [3] of 4.68 µM, an IC50 [4] of 3.6 µM and an IC50 [5] of 3.17 µM. It also gave an IC50 [24] of 1.35 µM, an IC50 [25] of less than 0.0316 µM and a viability, T/C [6] of 97.9%. It also gave a viability, T/C [7] of 95.8%, a viability, T/C [8] of 92.3% and a viability, T/C [9] of 89.9%. For the same molecule, the viability, T/C [10] was 71.2%, the viability, T/C [11] was 9.19% and the viability, T/C [12] was 94.8%. For the same molecule, the viability, T/C [13] was 83.4%, the viability, T/C [14] was 88.3% and the viability, T/C [15] was 82.6%. It also gave a viability, T/C [16] of 55.3%, a viability, T/C [17] of 7.94% and a viability, T/C [18] of 69.2%. It also gave a viability, T/C [19] of 71.2%, a viability, T/C [20] of 74.1% and a viability, T/C [21] of 68.1%. For the same molecule, the viability, T/C [22] was 50.1%, the viability, T/C [23] was 4.41% and the viability, T/C [26] was 56.5%. It also gave a viability, T/C [27] of 57.8%, a viability, T/C (second compound 3.16 µM, first compound 0.316 µM) of 51% and a viability, T/C (second compound 3.16 µM, first compound 1 µM) of 55.3%. For the same molecule, the viability, T/C (second compound 3.16 µM, first compound 3.16 µM) was 35.8%, the viability, T/C (second compound 3.16 µM, first compound 10 µM) was 2.97% and the viability, T/C [28] was 48.3%. For the same molecule, the viability, T/C [29] was 45.1%, the viability, T/C (second compound 10 µM, first compound 0.316 µM) was 49.5% and the viability, T/C (second compound 10 µM, first compound 1 µM) was 38.6%. For the same molecule, the viability, T/C (second compound 10 µM, first compound 3.16 µM) was 27.5% and the viability, T/C (second compound 10 µM, first compound 10 µM) was 0.51%.

`CC1(C)CCC(CN2CCN(c3ccc(C(=O)NS(=O)(=O)c4ccc(NCC5CCOCC5)c([N+](=O)[O-])c4)c(Oc4cnc5[nH]ccc5c4)c3)CC2)=C(c2ccc(Cl)cc2)C1` was tested, and the viability, T/C (compound 0.0316 µM) was 105% and 104%, the viability, T/C (compound 0.1 µM) was 103% and 110% and the viability, T/C (compound 0.316 µM) was 99.5% and 102%. The viability, T/C (compound 1 µM) was 104%, the viability, T/C (compound 3.16 µM) was 89.2% and 92.6% and the viability, T/C (compound 10 µM) was 17% and 19%. The IC50 (curve of compound) was 5.91 µM and 6.16 µM.

`Cn1cnc2c(F)c(Nc3ccc(Br)cc3Cl)c(C(=O)NOCCO)cc21` + CCN1CCN(Cc2ccc(Nc3ncc(F)c(-c4cc(F)c5nc(C)n(C(C)C)c5c4)n3)nc2)CC1 gave an IC50 [1] of 2.98 µM, an IC50 [2] of 2 µM and an IC50 [3] of 1.47 µM. It also gave an IC50 [4] of 2.02 µM, an IC50 [5] greater than 3 µM and a viability, T/C (second compound 0.01 µM, first compound 0.00949 µM) of 98.5%. The viability, T/C (second compound 0.01 µM, first compound 0.03 µM) was 95%, the viability, T/C (second compound 0.01 µM, first compound 0.0949 µM) was 82.1% and the viability, T/C (second compound 0.01 µM, first compound 0.3 µM) was 87.5%. It also gave a viability, T/C (second compound 0.01 µM, first compound 0.949 µM) of 69.4%, a viability, T/C (second compound 0.01 µM, first compound 3 µM) of 49.2% and a viability, T/C (second compound 0.0316 µM, first compound 0.00949 µM) of 88.3%. It also gave a viability, T/C (second compound 0.0316 µM, first compound 0.03 µM) of 77%, a viability, T/C (second compound 0.0316 µM, first compound 0.0949 µM) of 72.2% and a viability, T/C (second compound 0.0316 µM, first compound 0.3 µM) of 79.4%. The viability, T/C (second compound 0.0316 µM, first compound 0.949 µM) was 67.1%, the viability, T/C (second compound 0.0316 µM, first compound 3 µM) was 40.8% and the viability, T/C (second compound 0.1 µM, first compound 0.00949 µM) was 79.6%. It also gave a viability, T/C (second compound 0.1 µM, first compound 0.03 µM) of 70.6%, a viability, T/C (second compound 0.1 µM, first compound 0.0949 µM) of 77.7% and a viability, T/C (second compound 0.1 µM, first compound 0.3 µM) of 65.5%. For the same molecule, the viability, T/C (second compound 0.1 µM, first compound 0.949 µM) was 58.3%, the viability, T/C (second compound 0.1 µM, first compound 3 µM) was 38.1% and the viability, T/C (second compound 0.316 µM, first compound 0.00949 µM) was 77.3%. For the same molecule, the viability, T/C (second compound 0.316 µM, first compound 0.03 µM) was 74%, the viability, T/C (second compound 0.316 µM, first compound 0.0949 µM) was 68.3% and the viability, T/C (second compound 0.316 µM, first compound 0.3 µM) was 68.3%. The viability, T/C (second compound 0.316 µM, first compound 0.949 µM) was 56.2%, the viability, T/C (second compound 0.316 µM, first compound 3 µM) was 46% and the viability, T/C (second compound 1 µM, first compound 0.00949 µM) was 89.8%. The viability, T/C (second compound 1 µM, first compound 0.03 µM) was 89.7%, the viability, T/C (second compound 1 µM, first compound 0.0949 µM) was 78.9% and the viability, T/C (second compound 1 µM, first compound 0.3 µM) was 75.3%. It also gave a viability, T/C (second compound 1 µM, first compound 0.949 µM) of 69.2% and a viability, T/C (second compound 1 µM, first compound 3 µM) of 53%.

Work on `Cn1ncnc1[C@H]1c2n[nH]c(=O)c3cc(F)cc(c23)N[C@@H]1c1ccc(F)cc1` + CC(C)NCC(C(=O)N1CCN(c2ncnc3c2C(C)CC3O)CC1)c1ccc(Cl)cc1 yielded an IC50 [3] greater than 0.1 µM, an IC50 [4] greater than 0.1 µM and an IC50 [5] greater than 0.1 µM. The IC50 [24] was 0.000553 µM, the IC50 [25] was less than 0.000316 µM and the viability, T/C (second compound 0.1 µM, first compound 0.000316 µM) was 97.6%. The viability, T/C (second compound 0.1 µM, first compound 0.001 µM) was 95.3%, the viability, T/C (second compound 0.1 µM, first compound 0.00316 µM) was 87.9% and the viability, T/C (second compound 0.1 µM, first compound 0.01 µM) was 88.2%. The viability, T/C [6] was 82.8%, the viability, T/C [7] was 82.3% and the viability, T/C (second compound 0.316 µM, first compound 0.000316 µM) was 80.7%. The viability, T/C (second compound 0.316 µM, first compound 0.001 µM) was 79.5%, the viability, T/C (second compound 0.316 µM, first compound 0.00316 µM) was 79.9% and the viability, T/C (second compound 0.316 µM, first compound 0.01 µM) was 71.7%. The viability, T/C [12] was 75.5%, the viability, T/C [13] was 65.9% and the viability, T/C (second compound 1 µM, first compound 0.000316 µM) was 66.1%. The viability, T/C (second compound 1 µM, first compound 0.001 µM) was 61.3%, the viability, T/C (second compound 1 µM, first compound 0.00316 µM) was 62.6% and the viability, T/C (second compound 1 µM, first compound 0.01 µM) was 60%. It also gave a viability, T/C [18] of 58.6%, a viability, T/C [19] of 55.1% and a viability, T/C (second compound 3.16 µM, first compound 0.000316 µM) of 49.7%. For the same molecule, the viability, T/C (second compound 3.16 µM, first compound 0.001 µM) was 49.4%, the viability, T/C (second compound 3.16 µM, first compound 0.00316 µM) was 50.5% and the viability, T/C (second compound 3.16 µM, first compound 0.01 µM) was 48.3%. For the same molecule, the viability, T/C [26] was 44.9%, the viability, T/C [27] was 42.3% and the viability, T/C (second compound 10 µM, first compound 0.000316 µM) was 46.1%. It also gave a viability, T/C (second compound 10 µM, first compound 0.001 µM) of 42.9%, a viability, T/C (second compound 10 µM, first compound 0.00316 µM) of 44.9% and a viability, T/C (second compound 10 µM, first compound 0.01 µM) of 40.6%. For the same molecule, the viability, T/C [28] was 43.3% and the viability, T/C [29] was 38.6%.
